From publication PMC3206815, “An Essential Farnesylated Kinesin in Trypanosoma brucei” (PLoS ONE, 2011) come the findings set out here.

For the experiment, the target named is T1, Kinesin^CaaX (Trypanosoma brucei, UniProt Q388Z9).
T1 construct: gene Tb10.389.1270; truncated N-terminal 340-residue motor domain plus coil (full length 832 residues), N-terminal 6xHis, E. coli BL21 soluble lysate, about 44 kDa
T1 sequence (Q388Z9 1-340): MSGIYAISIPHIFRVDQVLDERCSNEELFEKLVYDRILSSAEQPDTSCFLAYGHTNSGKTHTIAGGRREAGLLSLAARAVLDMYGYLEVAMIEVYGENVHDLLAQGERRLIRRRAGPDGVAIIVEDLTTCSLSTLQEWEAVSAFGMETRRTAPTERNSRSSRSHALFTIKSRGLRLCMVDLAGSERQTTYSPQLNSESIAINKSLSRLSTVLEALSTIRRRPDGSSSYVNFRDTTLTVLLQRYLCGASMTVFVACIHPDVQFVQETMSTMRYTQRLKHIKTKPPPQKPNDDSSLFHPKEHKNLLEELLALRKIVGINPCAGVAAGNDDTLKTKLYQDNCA
As to the kind of experiment: microtubule gliding motility assay. In kind it is biochemical. Particulars: 1 mM MgATP, BRB80 pH 6.9, taxol-stabilised bovine microtubules; E. coli lysate with recombinant motor domain.

Regarding `Nc1ncnc2c1ncn2[C@@H]1O[C@H](COP(=O)(O)OP(=O)(O)OP(=O)(O)O)[C@@H](O)[C@H]1O` [ATP], the “microtubule gliding motility assay” value is “both ATP and the Kinesin^CaaX motor domain were required to move microtubules”.
